Article PMC6768028, “Synthesis, SAR and in vitro therapeutic potentials of thiazolidine-2,4-diones” (Chemistry Central Journal, 2018)
In brackets after ≈: the same amount, converted by molar mass.

Legend:
[1] = Antioxidant activity: free radical scavenging method by DPPH assay; details: for % inhibition (DPPH), 25 μg/ml / % inhibition (DPPH), 50 μg/ml / % inhibition (DPPH), 75 μg/ml / % inhibition (DPPH), 100 μg/ml: 30 min, 517 nm; for IC50 (antioxidant activity, DPPH): calculated via graph of % inhibition
Method: The antioxidant activity of the newly synthesized compounds were evaluated spectrophotometrically using free radical scavenging method by DPPH (2,2-diphenyl-1-picrylhydrazyl) assay. The DPPH is a stable free radical with maximal absorption at 517 nm and is reduced to a corresponding hydrazine when it reacting with hydrogen donors. […] DPPH solution (3 μg/ml) was prepared in methanol and DPPH (in 1:1) solution was used for blank reference. Four dilutions of different concentrations (25, 50, 75 and 100 μg/ml) of each synthesized compound and standard (ascorbic acid) were prepared in the methanol and 1 ml of each concentration was added to 1 ml of DPPH solution. The solution mixture was shaken vigorously and kept in dark place for 30 min at room temperature and absorbance was measured by UV at 517 nm. Percentage inhibition of Free radical DPPH was calculated as follows:1 %Inhibition=ABlank-ASample/ABlank×100 where, ABlank: absorbance of the blank reaction, ASample: absorbance of the test compound.

[2] = tested on: α-amylase enzyme (diastase); test: Antidiabetic activity: α-amylase inhibitory activity using diastase, colorimetric method; assay type: biochemical; details: for IC50 (antidiabetic activity, α-amylase): calculated via graph of % inhibition
Method: All the synthesized compounds were evaluated against α-amylase inhibitory activity by using diastase based on colorimetric method. 0.25 g of soluble potato starch was dissolved in 50 ml of 20 mM phosphate buffer by heating for 15 min. 1 mg diastase (amylase enzyme) was mixed in 100 ml of 20 mM phosphate buffer (pH 6.9) to obtain the enzyme solution. Different concentrations of all the synthesized derivatives were prepared by dissolving them in DMSO. […] 1 ml of enzyme solution was mixed with 1 ml of each synthesized derivatives and incubated for 10 min at 25 °C. Then 1 ml of this mixture was mixed with 1 ml of soluble potato starch solution in a tube and incubated for 10 min at 25 °C. Then tubes were closed after adding 1 ml of color reagent and placed into water bath for 15 min at 85 °C. The reaction mixture was removed from water bath after 15 min. After cooling, the reaction mixture was diluted with 9 ml of distilled water and the absorbance was taken at 540 nm in UV spectrophotometer. Blank solution was prepared by replacing the enzyme solution with buffer solution and absorbance was taken. Measurement of control was performed in identical manner by replacing the synthesized derivatives in 1 ml of DMSO.
Percentage inhibition of α-amylase enzyme was calculated by using following formula:1 %Inhibition=ABlank-ASample/ABlank×100

[3] = tested on: Candida albicans; test: Antifungal activity, tube dilution method (MIC); assay type: cell-based; details: 48 h, read-out: Minimum inhibitory concentration, C. albicans, tube dilution, 37 ± 1 °C, 48 h
Method: (§1) The in vitro antimicrobial activity of synthesized compounds was done by tube dilution method against Gram-positive bacteria: Staphylococcus aureus, Bacillus subtilis, Gram-negative bacteria: Escherichia coli, Klebsiella pneumonia, Salmonella typhi and fungal: Candida albicans and Aspergillus niger strains using cefadroxil and fluconazole as standard. Dilutions of test and standard compounds were prepared in double strength nutrient broth for bacterial strains and Sabouraud dextrose broth for fungal strains.

[4] = tested on: Aspergillus niger; test: Antifungal activity, tube dilution method (MIC); assay type: cell-based; details: 168 h, read-out: Minimum inhibitory concentration, A. niger, tube dilution, 25 ± 1 °C, 7 days
Method: as §1

[5] = tested on: Klebsiella pneumonia; test: Antimicrobial activity, tube dilution method (MIC); assay type: cell-based; details: Klebsiella pneumoniae, 24 h, read-out: Minimum inhibitory concentration, K. pneumonia, tube dilution, 37 ± 1 °C, 24 h
Method: as §1

[6] = tested on: Salmonella typhi; test: Antimicrobial activity, tube dilution method (MIC); assay type: cell-based; details: 24 h; for MIC: Salmonella enterica, TYPHI, read-out: Minimum inhibitory concentration, S. typhi
Method: as §1

[7] = tested on: Escherichia coli; test: Antimicrobial activity, tube dilution method (MIC); assay type: cell-based; details: 24 h, read-out: Minimum inhibitory concentration, E. coli, tube dilution, 37 ± 1 °C, 24 h
Method: as §1

[8] = tested on: Bacillus subtilis; test: Antimicrobial activity, tube dilution method (MIC); assay type: cell-based; details: 24 h, read-out: Minimum inhibitory concentration, B. subtilis, tube dilution, 37 ± 1 °C, 24 h
Method: as §1

[9] = tested on: Staphylococcus aureus; test: Antimicrobial activity, tube dilution method (MIC); assay type: cell-based; details: 24 h, read-out: Minimum inhibitory concentration, S. aureus, tube dilution, 37 ± 1 °C, 24 h
Method: as §1

Structure (SMILES)	% inhibition (DPPH), 25 μg/ml [1] [%]	% inhibition (DPPH), 50 μg/ml [1] [%]	% inhibition (DPPH), 75 μg/ml [1] [%]	% inhibition (DPPH), 100 μg/ml [1] [%]	IC50 (antioxidant activity, DPPH) [1] [µg/mL]	% inhibition (α-amylase), 25 μg/ml [2] [%]	% inhibition (α-amylase), 50 μg/ml [2] [%]	% inhibition (α-amylase), 75 μg/ml [2] [%]	% inhibition (α-amylase), 100 μg/ml [2] [%]	IC50 (antidiabetic activity, α-amylase) [2] [µg/mL]	MIC [3] [mM]	MIC [4] [mM]	melting point [°C]	MIC [5] [mM]	MIC [6] [mM]	MIC [7] [mM]	MIC [8] [mM]	MIC [9] [mM]	Minimum inhibitory concentration, S. typhi ([6]; tube dilution, 37 ± 1 °C) [μΜ/ml]
COc1cccc(C=C2SC(=O)NC2=O)c1 [Compound 16, 5-(3-Methoxybenzylidene)thiazolidine-2,4-dione]	30.65	43.62	79.11	87.97	39.77 (≈ 169 µM)	27.52	43.73	57.27	85.23	40.92 (≈ 174 µM)	5.31 (≈ 1250 µg/mL)	5.31 (≈ 1250 µg/mL)	217 to 220	10.6 (≈ 2490 µg/mL)	5.31 (≈ 1250 µg/mL)	5.31 (≈ 1250 µg/mL)	5.31 (≈ 1250 µg/mL)	5.31 (≈ 1250 µg/mL)	
CCN(CC)c1ccc(/C=C2/SC(=O)NC2=O)cc1 [Compound 8]	26.93	33.78	62.23	65.78	31.15 (≈ 113 µM)	20.79	39.54	40.89	93.17	56.89 (≈ 206 µM)	4.5 (≈ 1240 µg/mL)	4.5 (≈ 1240 µg/mL)	158 to 160	4.5 (≈ 1240 µg/mL)	4.5 (≈ 1240 µg/mL)	5 (≈ 1380 µg/mL)	4.5 (≈ 1240 µg/mL)	4.5 (≈ 1240 µg/mL)	
COc1cc(C=C2SC(=O)NC2=O)cc(OC)c1OC [Compound 10, 5-(3,4,5-Trimethoxybenzylidene)thiazolidine-2,4-dione]	28.61	39.67	59.75	86.70	43.44 (≈ 147 µM)	29.34	43.98	63.36	98.14	47.49 (≈ 161 µM)			210 to 213	4.2 (≈ 1240 µg/mL)	4.2 (≈ 1240 µg/mL)	8.4 (≈ 2480 µg/mL)			4.20
O=C1NC(=O)C(=Cc2cccc([N+](=O)[O-])c2)S1 [Compound 7, 5-(3-Nitrobenzylidene)thiazolidine-2,4-dione]	20.51	35.61	79.74	86.04	55.23 (≈ 221 µM)	24.72	35.71	64.87	97.15	56.09 (≈ 224 µM)	4.99 (≈ 1250 µg/mL)	9.9 (≈ 2480 µg/mL)	110 to 113	4.99 (≈ 1250 µg/mL)	4.99 (≈ 1250 µg/mL)	4.99 (≈ 1250 µg/mL)	9.9 (≈ 2480 µg/mL)	4.99 (≈ 1250 µg/mL)	
O=C1NC(=O)C(=Cc2ccc(Br)cc2)S1 [Compound 9, 5-(4-Bromobenzylidene)thiazolidine-2,4-dione]	36.83	45.41	71.51	87.34	27.66 (≈ 97.3 µM)	24.73	53.78	68.34	89.37	41.67 (≈ 147 µM)	4.3 (≈ 1220 µg/mL)	4.3 (≈ 1220 µg/mL)	150 to 152	8.79 (≈ 2500 µg/mL)	4.3 (≈ 1220 µg/mL)	8.79 (≈ 2500 µg/mL)	8.79 (≈ 2500 µg/mL)	4.3 (≈ 1220 µg/mL)	
COc1ccccc1C=C1SC(=O)NC1=O [Compound 15, 5-(2-Methoxybenzylidene)thiazolidine-2,4-dione]	33.51	43.98	77.21	98.67	43.25 (≈ 184 µM)	32.59	51.78	66.98	81.30	22.35 (≈ 95 µM)	5.31 (≈ 1250 µg/mL)	5.31 (≈ 1250 µg/mL)	147 to 150		5.31 (≈ 1250 µg/mL)	5.31 (≈ 1250 µg/mL)	5.31 (≈ 1250 µg/mL)	5.31 (≈ 1250 µg/mL)	
O=C1NC(=O)/C(=C\c2cccc(Cl)c2)S1 [Compound 14, 5-(3-Chlorobenzylidene)thiazolidiine-2,4-dione]													137 to 140						
CCOc1cc(C=C2SC(=O)NC2=O)ccc1O [Compound 11, 5-(4-Hydroxy-3-ethoxybenzylidene)thiazolidine-2,4-dione]	18.64	25.71	72.78	93.59	64.03 (≈ 241 µM)	18.49	47.87	59.74	89.71	52.69 (≈ 199 µM)	4.7 (≈ 1250 µg/mL)	4.7 (≈ 1250 µg/mL)		4.7 (≈ 1250 µg/mL)	4.7 (≈ 1250 µg/mL)	4.7 (≈ 1250 µg/mL)	9.4 (≈ 2490 µg/mL)	4.7 (≈ 1250 µg/mL)	
O=C1NC(=O)C(=Cc2ccc([N+](=O)[O-])cc2)S1 [Compound 1, 5-(4-Nitrobenzylidene)thiazolidine-2,4-dione]	32.64	40.22	73.41	84.81	36.35 (≈ 145 µM)	22.65	35.79	55.52	88.68	54.35 (≈ 217 µM)	4.9 (≈ 1230 µg/mL)	4.9 (≈ 1230 µg/mL)		9.9 (≈ 2480 µg/mL)	4.9 (≈ 1230 µg/mL)	4.9 (≈ 1230 µg/mL)	9.9 (≈ 2480 µg/mL)	4.9 (≈ 1230 µg/mL)	
COc1ccc(C=C2SC(=O)NC2=O)cc1OC [Compound 19, 5-(3,4-Dimethoxybenzylidene)thiazolidine-2,4-dione]	28.64	39.67	73.41	90.05	46.03 (≈ 174 µM)	29.33	47.77	58.34	90.86	40.01 (≈ 151 µM)	4.7 (≈ 1250 µg/mL)	4.7 (≈ 1250 µg/mL)		9.4 (≈ 2490 µg/mL)	4.7 (≈ 1250 µg/mL)	4.7 (≈ 1250 µg/mL)	4.7 (≈ 1250 µg/mL)	4.7 (≈ 1250 µg/mL)	
